Experimental data as given in patent US20230257373A1, “QUORUM SENSING INHIBITORS AND METHODS OF USE” (priority 2020, published 2023).

Tests used:
SmcR = SmcR (Vibrio vulnificus, UniProt Q9L8G8); experiment: EMSA DNA binding activity of SmcR; type: biochemical, V. vulnificus; conditions: saturating concentrations
Description: (§1) We noted that Qstatin and PTSP are both predicted to bind in the putative ligand binding pocket of SmcR. It is currently unknown how Qstatin allosterically affects DNA binding through its interactions in the ligand binding domain. […] We therefore also assessed the effect of sulfonamide PTSP on the DNA binding activity of LuxR and SmcR in vitro. […] (Kim et al., 2018).
(§2) SmcR and LuxR were purified as described previously. EMSAs were conducted as described previously using oligonucleotides corresponding to the luxC and vvpE promoter sequences. ITC analysis was conducted using purified LuxR or His-tagged SmcR, each in gel-filtration buffer (25 mM Tris pH 7.5, 300 mM NaCl, 0.5 mM EDTA, 1 mM DTT, 2% DMSO). All molecules analyzed were diluted in the same buffer. The samples were degassed for 10 min by vacuum aspiration. Titrations were performed on a Nano-ITC (TA Instruments). […] Thermograms were analyzed using NanoAnalyze software with the independent binding model.

LuxR = LuxR (Vibrio harveyi, UniProt P21308); experiment: EMSA DNA binding activity of LuxR; type: biochemical, V. campbellii; set-up: made in house; host or cells: E. coli BL21(DE3); conditions: saturating concentrations
Description: as §1, §2

Chain of SmcR (Q9L8G8 entry or part of it): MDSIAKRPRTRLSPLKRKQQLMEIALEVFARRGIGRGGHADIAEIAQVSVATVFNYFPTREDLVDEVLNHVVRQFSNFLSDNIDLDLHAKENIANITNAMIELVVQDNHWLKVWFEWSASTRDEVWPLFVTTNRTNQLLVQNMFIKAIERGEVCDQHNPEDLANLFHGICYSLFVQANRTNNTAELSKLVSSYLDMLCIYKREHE
Chain of LuxR (P21308 whole entry): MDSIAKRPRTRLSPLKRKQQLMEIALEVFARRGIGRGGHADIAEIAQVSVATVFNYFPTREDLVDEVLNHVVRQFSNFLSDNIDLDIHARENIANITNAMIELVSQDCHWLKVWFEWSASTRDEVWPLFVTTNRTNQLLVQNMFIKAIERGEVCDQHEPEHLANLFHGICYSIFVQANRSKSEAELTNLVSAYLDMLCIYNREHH

`O=S(=O)(c1cccs1)n1ccc(-c2ccccc2)n1` [Compound 10B] was tested, and the “DNA binding to SmcR” value (SmcR) was “did not alter DNA binding” and the “DNA binding to LuxR” value (LuxR) was “did not alter DNA binding”.
